Reference: publication PMC3246389 (Nature biotechnology, 2011)

What was measured:
[1] = read-out: Kd, literature value; SPR on immobilized GM1; cited from earlier work
[2] = biological target: GABAB receptor (Homo sapiens, UniProt Q9UBS5); type: binding, rat and human; conditions: control ligand tested at the highest concentration
Sequence of GABAB receptor (Q9UBS5 1-844 isoform Q9UBS5-2): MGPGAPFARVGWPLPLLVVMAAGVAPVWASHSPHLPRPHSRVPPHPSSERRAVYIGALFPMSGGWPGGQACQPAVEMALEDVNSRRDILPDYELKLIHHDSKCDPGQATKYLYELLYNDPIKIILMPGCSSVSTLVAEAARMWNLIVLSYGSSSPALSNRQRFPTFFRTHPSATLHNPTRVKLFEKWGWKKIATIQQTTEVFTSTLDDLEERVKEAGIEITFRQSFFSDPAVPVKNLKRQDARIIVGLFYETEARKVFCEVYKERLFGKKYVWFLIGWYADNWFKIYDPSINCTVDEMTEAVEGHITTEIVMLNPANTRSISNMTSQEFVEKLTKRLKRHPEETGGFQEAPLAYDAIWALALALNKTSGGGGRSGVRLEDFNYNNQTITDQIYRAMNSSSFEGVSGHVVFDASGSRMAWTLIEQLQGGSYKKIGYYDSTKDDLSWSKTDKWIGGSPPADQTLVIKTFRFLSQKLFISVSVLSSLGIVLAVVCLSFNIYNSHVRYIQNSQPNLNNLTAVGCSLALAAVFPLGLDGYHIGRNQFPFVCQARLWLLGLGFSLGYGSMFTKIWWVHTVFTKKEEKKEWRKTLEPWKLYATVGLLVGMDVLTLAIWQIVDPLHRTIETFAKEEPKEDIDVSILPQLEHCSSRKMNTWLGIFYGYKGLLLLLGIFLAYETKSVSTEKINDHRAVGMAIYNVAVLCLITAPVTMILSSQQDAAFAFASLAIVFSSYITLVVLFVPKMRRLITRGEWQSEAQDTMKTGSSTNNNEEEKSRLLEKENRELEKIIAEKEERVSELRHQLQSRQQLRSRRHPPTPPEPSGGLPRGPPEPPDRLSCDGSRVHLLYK
Sequence of GABAB receptor (O88871 41-940 partner): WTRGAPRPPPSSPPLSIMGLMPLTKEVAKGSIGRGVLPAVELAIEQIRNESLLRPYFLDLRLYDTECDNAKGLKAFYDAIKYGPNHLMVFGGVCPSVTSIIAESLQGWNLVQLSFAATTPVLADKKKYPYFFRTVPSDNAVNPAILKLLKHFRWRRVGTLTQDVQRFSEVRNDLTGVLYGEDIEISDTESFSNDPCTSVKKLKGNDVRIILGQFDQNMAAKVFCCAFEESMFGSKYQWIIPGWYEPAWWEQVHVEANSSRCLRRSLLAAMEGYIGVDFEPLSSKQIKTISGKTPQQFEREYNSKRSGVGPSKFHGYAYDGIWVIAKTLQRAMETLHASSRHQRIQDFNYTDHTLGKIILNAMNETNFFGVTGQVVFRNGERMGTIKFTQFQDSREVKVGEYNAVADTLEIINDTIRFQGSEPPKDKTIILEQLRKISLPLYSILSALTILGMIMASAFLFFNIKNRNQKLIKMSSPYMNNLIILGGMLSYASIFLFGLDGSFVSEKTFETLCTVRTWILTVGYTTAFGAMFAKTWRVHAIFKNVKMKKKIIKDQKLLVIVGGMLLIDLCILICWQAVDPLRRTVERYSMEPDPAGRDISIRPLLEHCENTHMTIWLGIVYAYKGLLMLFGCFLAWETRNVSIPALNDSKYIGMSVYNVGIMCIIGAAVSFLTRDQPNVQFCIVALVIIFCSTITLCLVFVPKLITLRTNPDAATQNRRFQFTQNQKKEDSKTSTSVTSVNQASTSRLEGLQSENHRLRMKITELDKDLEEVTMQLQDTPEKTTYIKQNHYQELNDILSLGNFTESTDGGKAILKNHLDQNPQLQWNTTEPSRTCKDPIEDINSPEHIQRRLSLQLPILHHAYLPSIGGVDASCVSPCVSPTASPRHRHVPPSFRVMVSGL

Row | BSI binding curve (negative control) [2] | Compound | Kd [1] [pM]
1 |  | Cholera toxin B subunit: cholera toxin B subunit, soluble protein that binds GM1; purchased from Sigma | 4
2 | negative control | C[C@H](N)C(=O)O [L-alanine] | 
3 | negative control | CC(C)CCC[C@@H](C)[C@H]1CC[C@H]2[C@@H]3CC=C4C[C@@H](O)CC[C@]4(C)[C@H]3CC[C@]12C [cholesterol] | 
